Measurements from US9113629B2, “4-amino-6-(4-substituted-phenyl)-picolinates and 6-amino-2-(4-substituted-phenyl)-pyrimidine-4-carboxylates and their use as herbicides” (DOW AGROSCIENCES LLC, priority 2013, dated 2015).

What follows are compounds tested on Key Grass and Sedge Weeds as well as Grass Crops (assay: Post-emergent Test II herbicidal activity (Table 6)). Details: post-emergence, 336 h, CYPES: yellow nutsedge (Cyperus esculentus), 70 g ai/ha, read-out: Visual Growth Reduction (%) 14 Days After Application, CYPES.
Assay type: in vivo
In short: (§1)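 Greenhouse-grown plants at first or second true leaf stage were sprayed post-emergence with compound in acetone/DMSO-based aqueous spray containing crop oil concentrate and surfactant, at 187 L/ha, highest rate plus ½× to 1/16× dilutions. After 14 d, injury was scored visually versus untreated plants, 0 (none) to 100% (complete kill).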

SMILES | pest or weed control at 70 g/ha [%]
COC(=O)c1nc(-c2ccc(C(F)F)c(F)c2)cc(N)c1Cl [Compound 196] | 85 to 94

Same assay, conditions: post-emergence, 336 h, CYPES: yellow nutsedge (Cyperus esculentus), 140 g ai/ha, read-out: Visual Growth Reduction (%) 14 Days After Application, CYPES

SMILES | pest or weed control at 140 g/ha [%]
COC(=O)c1nc(-c2ccc(C(F)F)c(F)c2)cc(N)c1Cl [Compound 196] | 85 to 94

Same assay, conditions: post-emergence, 336 h, DIGSA: crabgrass (Digitaria sanguinalis), 70 g ai/ha, read-out: Visual Growth Reduction (%) 14 Days After Application, DIGSA

SMILES | pest or weed control at 70 g/ha [%]
COC(=O)c1nc(-c2ccc(C(F)F)c(F)c2)cc(N)c1Cl [Compound 196] | 45 to 59

Same assay, conditions: post-emergence, 336 h, DIGSA: crabgrass (Digitaria sanguinalis), 140 g ai/ha, read-out: Visual Growth Reduction (%) 14 Days After Application, DIGSA

SMILES | pest or weed control at 140 g/ha [%]
COC(=O)c1nc(-c2ccc(C(F)F)c(F)c2)cc(N)c1Cl [Compound 196] | 45 to 59

Same assay, conditions: post-emergence, 336 h, ECHCG: barnyardgrass (Echinochloa crus-galli), 70 g ai/ha, read-out: Visual Growth Reduction (%) 14 Days After Application, ECHCG

SMILES | pest or weed control at 70 g/ha [%]
COC(=O)c1nc(-c2ccc(C(F)F)c(F)c2)cc(N)c1Cl [Compound 196] | 95 to 100

Same assay, conditions: post-emergence, 336 h, ECHCG: barnyardgrass (Echinochloa crus-galli), 140 g ai/ha, read-out: Visual Growth Reduction (%) 14 Days After Application, ECHCG

SMILES | pest or weed control at 140 g/ha [%]
COC(=O)c1nc(-c2ccc(C(F)F)c(F)c2)cc(N)c1Cl [Compound 196] | 95 to 100

Same assay, conditions: post-emergence, 336 h, ORYSA: rice (Oryza sativa), crop, 70 g ai/ha, read-out: Visual Growth Reduction (%) 14 Days After Application, ORYSA

SMILES | pest or weed control at 70 g/ha [%]
COC(=O)c1nc(-c2ccc(C(F)F)c(F)c2)cc(N)c1Cl [Compound 196] | 0 to 29

Same assay, conditions: post-emergence, 336 h, ORYSA: rice (Oryza sativa), crop, 140 g ai/ha, read-out: Visual Growth Reduction (%) 14 Days After Application, ORYSA

SMILES | pest or weed control at 140 g/ha [%]
COC(=O)c1nc(-c2ccc(C(F)F)c(F)c2)cc(N)c1Cl [Compound 196] | 0 to 29

Same assay, conditions: post-emergence, 336 h, SETFA: giant foxtail (Setaria faberi), 70 g ai/ha, read-out: Visual Growth Reduction (%) 14 Days After Application, SETFA

SMILES | pest or weed control at 70 g/ha [%]
COC(=O)c1nc(-c2ccc(C(F)F)c(F)c2)cc(N)c1Cl [Compound 196] | 0 to 29

Same assay, conditions: post-emergence, 336 h, SETFA: giant foxtail (Setaria faberi), 140 g ai/ha, read-out: Visual Growth Reduction (%) 14 Days After Application, SETFA

SMILES | pest or weed control at 140 g/ha [%]
COC(=O)c1nc(-c2ccc(C(F)F)c(F)c2)cc(N)c1Cl [Compound 196] | 0 to 29

Same assay, conditions: post-emergence, 336 h, SORVU: grain sorghum (Sorghum vulgare), 70 g ai/ha, read-out: Visual Growth Reduction (%) 14 Days After Application, SORVU

SMILES | pest or weed control at 70 g/ha [%]
COC(=O)c1nc(-c2ccc(C(F)F)c(F)c2)cc(N)c1Cl [Compound 196] | 75 to 84

Same assay, conditions: post-emergence, 336 h, SORVU: grain sorghum (Sorghum vulgare), 140 g ai/ha, read-out: Visual Growth Reduction (%) 14 Days After Application, SORVU

SMILES | pest or weed control at 140 g/ha [%]
COC(=O)c1nc(-c2ccc(C(F)F)c(F)c2)cc(N)c1Cl [Compound 196] | 75 to 84

Same assay, conditions: post-emergence, 336 h, TRZSS (wheat, Triticum aestivum), crop, 70 g ai/ha, read-out: Visual Growth Reduction (%) 14 Days After Application, TRZSS

SMILES | pest or weed control at 70 g/ha [%]
COC(=O)c1nc(-c2ccc(C(F)F)c(F)c2)cc(N)c1Cl [Compound 196] | 0 to 29

Same assay, conditions: post-emergence, 336 h, TRZSS (wheat, Triticum aestivum), crop, 140 g ai/ha, read-out: Visual Growth Reduction (%) 14 Days After Application, TRZSS

SMILES | pest or weed control at 140 g/ha [%]
COC(=O)c1nc(-c2ccc(C(F)F)c(F)c2)cc(N)c1Cl [Compound 196] | 0 to 29

Same assay, conditions: post-emergence, 336 h, ZEAMX: maize, corn (Zea mays), crop, 70 g ai/ha, read-out: Visual Growth Reduction (%) 14 Days After Application, ZEAMX

SMILES | pest or weed control at 70 g/ha [%]
COC(=O)c1nc(-c2ccc(C(F)F)c(F)c2)cc(N)c1Cl [Compound 196] | 0 to 29

Same assay, conditions: post-emergence, 336 h, ZEAMX: maize, corn (Zea mays), crop, 140 g ai/ha, read-out: Visual Growth Reduction (%) 14 Days After Application, ZEAMX

SMILES | pest or weed control at 140 g/ha [%]
COC(=O)c1nc(-c2ccc(C(F)F)c(F)c2)cc(N)c1Cl [Compound 196] | 75 to 84

Each compound was assayed on Key Broadleaf Weed and Crop Species (assay: Post-emergent Test II herbicidal activity (Table 5)). Details: post-emergence, 336 h; ABUTH: velvetleaf (Abutilon theophrasti); application rate 70 g ai/ha; 14 days after application; read-out: Visual Growth Reduction (%) 14 Days After Application, ABUTH.
Assay type: in vivo
In short: as §1

SMILES | pest or weed control at 70 g/ha [%]
COC(=O)c1nc(-c2ccc(C(F)F)c(F)c2)cc(N)c1Cl [Compound 196] | 95 to 100

Same assay, conditions: post-emergence, 336 h; ABUTH: velvetleaf (Abutilon theophrasti); application rate 140 g ai/ha; 14 days after application; read-out: Visual Growth Reduction (%) 14 Days After Application, ABUTH

SMILES | pest or weed control at 140 g/ha [%]
COC(=O)c1nc(-c2ccc(C(F)F)c(F)c2)cc(N)c1Cl [Compound 196] | 95 to 100

Same assay, conditions: post-emergence, 336 h; AMARE: redroot pigweed (Amaranthus retroflexus); application rate 70 g ai/ha; 14 days after application; read-out: Visual Growth Reduction (%) 14 Days After Application, AMARE

SMILES | pest or weed control at 70 g/ha [%]
COC(=O)c1nc(-c2ccc(C(F)F)c(F)c2)cc(N)c1Cl [Compound 196] | 95 to 100

Same assay, conditions: post-emergence, 336 h; AMARE: redroot pigweed (Amaranthus retroflexus); application rate 140 g ai/ha; 14 days after application; read-out: Visual Growth Reduction (%) 14 Days After Application, AMARE

SMILES | pest or weed control at 140 g/ha [%]
COC(=O)c1nc(-c2ccc(C(F)F)c(F)c2)cc(N)c1Cl [Compound 196] | 95 to 100

Same assay, conditions: post-emergence, 336 h; BRSNN: oilseed-rape, canola (Brassica napus); application rate 70 g ai/ha; 14 days after application; read-out: Visual Growth Reduction (%) 14 Days After Application, BRSNN

SMILES | pest or weed control at 70 g/ha [%]
COC(=O)c1nc(-c2ccc(C(F)F)c(F)c2)cc(N)c1Cl [Compound 196] | 30 to 44

Same assay, conditions: post-emergence, 336 h; BRSNN: oilseed-rape, canola (Brassica napus); application rate 140 g ai/ha; 14 days after application; read-out: Visual Growth Reduction (%) 14 Days After Application, BRSNN

SMILES | pest or weed control at 140 g/ha [%]
COC(=O)c1nc(-c2ccc(C(F)F)c(F)c2)cc(N)c1Cl [Compound 196] | 30 to 44

Same assay, conditions: post-emergence, 336 h; CHEAL: lambsquarters (Chenopodium album); application rate 70 g ai/ha; 14 days after application; read-out: Visual Growth Reduction (%) 14 Days After Application, CHEAL

SMILES | pest or weed control at 70 g/ha [%]
COC(=O)c1nc(-c2ccc(C(F)F)c(F)c2)cc(N)c1Cl [Compound 196] | 95 to 100

Same assay, conditions: post-emergence, 336 h; CHEAL: lambsquarters (Chenopodium album); application rate 140 g ai/ha; 14 days after application; read-out: Visual Growth Reduction (%) 14 Days After Application, CHEAL

SMILES | pest or weed control at 140 g/ha [%]
COC(=O)c1nc(-c2ccc(C(F)F)c(F)c2)cc(N)c1Cl [Compound 196] | 95 to 100

Same assay, conditions: post-emergence, 336 h; EPHHL: wild poinsettia (Euphorbia heterophylla); application rate 70 g ai/ha; 14 days after application; read-out: Visual Growth Reduction (%) 14 Days After Application, EPHHL

SMILES | pest or weed control at 70 g/ha [%]
COC(=O)c1nc(-c2ccc(C(F)F)c(F)c2)cc(N)c1Cl [Compound 196] | 95 to 100

Same assay, conditions: post-emergence, 336 h; EPHHL: wild poinsettia (Euphorbia heterophylla); application rate 140 g ai/ha; 14 days after application; read-out: Visual Growth Reduction (%) 14 Days After Application, EPHHL

SMILES | pest or weed control at 140 g/ha [%]
COC(=O)c1nc(-c2ccc(C(F)F)c(F)c2)cc(N)c1Cl [Compound 196] | 95 to 100

Same assay, conditions: post-emergence, 336 h; HELAN: sunflower (Helianthus annuus); application rate 70 g ai/ha; 14 days after application; read-out: Visual Growth Reduction (%) 14 Days After Application, HELAN

SMILES | pest or weed control at 70 g/ha [%]
COC(=O)c1nc(-c2ccc(C(F)F)c(F)c2)cc(N)c1Cl [Compound 196] | 95 to 100

Same assay, conditions: post-emergence, 336 h; HELAN: sunflower (Helianthus annuus); application rate 140 g ai/ha; 14 days after application; read-out: Visual Growth Reduction (%) 14 Days After Application, HELAN

SMILES | pest or weed control at 140 g/ha [%]
COC(=O)c1nc(-c2ccc(C(F)F)c(F)c2)cc(N)c1Cl [Compound 196] | 95 to 100

Same assay, conditions: post-emergence, 336 h; VIOTR: wild pansy (Viola tricolor); application rate 70 g ai/ha; 14 days after application; read-out: Visual Growth Reduction (%) 14 Days After Application, VIOTR

SMILES | pest or weed control at 70 g/ha [%]
COC(=O)c1nc(-c2ccc(C(F)F)c(F)c2)cc(N)c1Cl [Compound 196] | 0 to 29

Same assay, conditions: post-emergence, 336 h; VIOTR: wild pansy (Viola tricolor); application rate 140 g ai/ha; 14 days after application; read-out: Visual Growth Reduction (%) 14 Days After Application, VIOTR

SMILES | pest or weed control at 140 g/ha [%]
COC(=O)c1nc(-c2ccc(C(F)F)c(F)c2)cc(N)c1Cl [Compound 196] | 0 to 29
